From patent publication US8716530B2, “Facially amphiphilic polyaryl and polyarylalkynyl polymers and oligomers and uses thereof” (The Trustess of the University of Pennsylvania, priority 2004, dated 2014) come the findings set out here.

One assay concerns Bacillus globigii. Type of assay: cell-based.
A further assay concerns Enterococcus faecalis. Put plainly: MIC100, clinical isolates of hospital-acquired pathogens (Table 7). It counts as cell-based. The following applies: control strain ATCC 29212.
A further assay has as its system S. aureus. Type of assay: cell-based. The following applies: S. aureus passaged at 0.5x MIC100; by passage 16 (17 consecutive passages).
The next assay concerns K. pneumonia. The assay can be described thus: Modified NCCLS microbroth dilution MIC assay. The following applies: Klebsiella pneumoniae, read-out: K. pneumonia MIC. (In general: In broth dilution the organism is exposed to a series of concentrations in liquid medium.)
In the next assay the test system is Penicillium funiculosum. The assay can be described thus: Antifungal MIC/MFC, NCCLS M38-A. It counts as cell-based. As to the method: (§1) MIC endpoints were determined for A. fumigatus, P. funiculosum, C. globosum and T. virens according to current NCCLS guidelines defined for testing A. fumigatus (NCCLS M38-A, 2002). […] Amphotericin B was included in the screen with C. albicans as a positive control. All MIC testing was done in 96 well microtiter panels using RPMI 1640 (with glutamine and without bicarbonate) broth as a growth media. Incubation was at 35° C., and growth was read at 48, 72, (and for some slow growing fungal species, 96 hours). […] MFC (minimal fungicidal concentrations) endpoints were calculated using a modified methodology based on the NCCLS defined methodology for measuring minimal bactericidal concentrations (MBC). Experimentation to calculate MFCs was undertaken only for those organisms for which an MIC endpoint was satisfactorily calculated. MFCs are defined as the concentration required to reduce the number of viable organisms by at least 90%.

Another assay has as its system Chaetomium globosum. Put plainly: Antifungal MIC/MFC, NCCLS M38-A. It counts as cell-based. As to the method: as §1
A further assay relates to Aspergillus fumigatus. Put plainly: Antifungal MIC/MFC, NCCLS M38-A. It counts as cell-based. As to the method:
as §1

For a further assay, the system named is Trichoderma virens. The assay can be described thus: Antifungal MIC/MFC, NCCLS M38-A. Type of assay: cell-based. As to the method:
as §1

The test system of another assay is Salmonella typhimurium. Type of assay: cell-based.
For a further assay, the system named is Streptococcus gordonii. It counts as cell-based.
The test system of the next assay is Bacillus subtilis. Type of assay: cell-based.
Setting [1] is: concentration reducing viable organisms by at least 90%.

In brackets after ≈: the same amount, converted by molar mass.

For `NCCc1cc(Br)cc(C#Cc2cccc(C#Cc3cc(Br)cc(CCN)c3)c2)c1` [Compound 3], the MIC100 Bacillus globigii in the assay on Bacillus globigii was 3.4 µg/mL (≈ 6.51 µM). The molecule further came in with a mic (MIC100) Enterococcus faecalis ATCC 29212 in the assay with Enterococcus faecalis of 1 µg/mL. In addition, the “increase in MIC on serial passage” value in the assay on S. aureus is “No consistent increase in the MIC”. The MIC (in general, the smallest concentration in the dilution series that meets the test's criterion for growth inhibition) with K. pneumonia is 1.7 µg/mL (≈ 3.25 µM). In the assay on Penicillium funiculosum (RPMI 1640, 35° C.), this molecule came in with an MIC Penicillium funiculosum of 1 µg/mL (≈ 1.91 µM). In the assay on Penicillium funiculosum (setting [1]), this molecule showed an MFC Penicillium funiculosum of 2 µg/mL (≈ 3.83 µM). For the same molecule, the MIC Chaetomium globosum with Chaetomium globosum (RPMI 1640, 35° C.) came out at 0.5 µg/mL (≈ 0.957 µM). In the assay with Chaetomium globosum (setting [1]), the MFC Chaetomium globosum turned out to be 8 µg/mL (≈ 15.3 µM). Also, the “MIC Aspergillus fumigatus” value in the assay with Aspergillus fumigatus (RPMI 1640, 35° C.) is given as 32/32. Further, the “MFC Aspergillus fumigatus” value against Aspergillus fumigatus (setting [1]) was 32/32. Further, the “MIC Trichoderma virens” value in the assay on Trichoderma virens (RPMI 1640, 35° C.) is given as 32/32. Moreover, in the assay with Trichoderma virens (setting [1]), the “MFC Trichoderma virens” value is 32/32. The molecule further came in with an MIC100 Salmonella typhimurium in the assay on Salmonella typhimurium of 3.4 µg/mL (≈ 6.51 µM). In the assay with Streptococcus gordonii, this molecule registered an MIC100 Streptococcus gordonii of 1.7 µg/mL (≈ 3.25 µM). In the assay on Bacillus subtilis, this molecule came in with an MIC100 Bacillus subtilis of 1.7 µg/mL (≈ 3.25 µM).
